Patent publication EP1708721B1, “MYOCARDIAL PERFUSION IMAGING USING ADENOSINE RECEPTOR AGONISTS” (Gilead Sciences, Inc., priority 2004, dated 2005)
In brackets after ≈: the same amount, converted by molar mass.

Assays:
solubility in water = assay type: physicochemical
Experimental: CVT-3146 has solubility in water of about 50 micrograms/mL. Therefore, CVT-3146 can be dissolved and administered in water so long as the desired weight amount of CVT-3146 can be administered in an acceptable volume. For example, a preferred dose of about 400 micrograms can be administered in 8 mL of water. If this volume is too great for administration purposes, or if the pharmaceutical composition will be stored at other than room temperature (RT), then additional ingredients can be added to the composition to increase the solubility of CVT-3146 in the composition and/or to provide the resulting pharmaceutical composition with other improved properties such as improved stability and storage properties. Pharmaceutical compositions of this invention may include up to about 1 milligram/mL of CVT-3146. It is preferred that pharmaceutical compositions including CVT-3146 include from 50 to 250 micrograms/mL, and more preferably from 50 to 150 micrograms/mL of CVT-3146.

anesthetized dog = test: Example 4: blood flow velocity in various vascular beds, intravascular Doppler catheter; assay type: in vivo; settings: 1.0 µg/kg intravenous bolus
Text: The effects of CVT-3146 were quantified as the average peak blood flow velocity (APV) using intravascular Doppler transducer tipped catheter. Heart rate (HR) and systemic arterial blood pressure (BP) were also monitored. […] Increased blood flow velocity was associated with a small transient increase in HR (16 bpm) and decrease in BP (12 mmHg).

SMILES: CNC(=O)c1cnn(-c2nc(N)c3ncn([C@@H]4O[C@H](CO)[C@@H](O)[C@H]4O)c3n2)c1 [CVT-3146, (1-{9-[(4S,2R,3R,5R)-3,4-dihydroxy-5-(hydroxymethyl)oxolan-2-yl]-6-aminopurin-2-yl}pyrazol-4-yl)-N-methylcarboxamide]
- solubility (solubility in water): ~0.05 mg/mL (≈ 128 µM)
- decrease in BP (anesthetized dog): 12 mmHg
- small transient increase in HR (anesthetized dog): 16 bpm
- time to dissipation of effect on blood flow velocity (anesthetized dog): less than ten
- time to peak of effect on blood flow velocity (anesthetized dog): less than 30 sec
- APV increased (average peak blood flow velocity) (anesthetized dog; brain arterial vasculature (BA)): 1.4 ± 0.1 fold
- APV increased (average peak blood flow velocity) (anesthetized dog; forelimb artery (FA)): 1.2 ± 0.1 fold
- APV increased (average peak blood flow velocity) (anesthetized dog; left circumflex coronary artery (LCX)): 3.1 ± 0.2 fold
- APV increased (average peak blood flow velocity) (anesthetized dog; pulmonary artery (PA)): 1.1 ± 0.01 fold
